Here are results for 4 compounds from patent US9169241B2, “Quinolinyloxyphenylsulfonamides” (Max-Planck-Gesellschaft Zur Forderung der Wissenschaften …, priority 2009, dated 2015).

Holding throughout (experiment): Cell vitality assay (ATP assay, CellTiter-Glo)
What all share (format): cell-based

One test deals with 786-0. The note with it: Homo sapiens, Table IIb. Put shortly: (§1)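 Luminescent ATP read-out of viable cells; IC50 = concentration at which ATP falls to 50% of DMSO control. Cells seeded at 1000/well, treated 72 h with seven concentrations from 0.195 to 12.5 μM.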
The next test relates to A549. Particulars: Homo sapiens, Table IIc. An outline of the steps: as §1
In another test the test system is Aspc-1. Particulars: Homo sapiens, ASPC1, Table IIb. An outline of the steps:
as §1

The next test has as its system DU145. Particulars: Homo sapiens, DU-145, Table IIb. Put shortly:
as §1

A further test has as its system H460. Particulars: Homo sapiens, NCI-H460, Table IIc. Put shortly: as §1
For another test, the system named is HT29. The note with it: Homo sapiens, HT-29, Table IIc. An outline of the steps: as §1
In the next test the test system is MDA-MB435s. The note with it: Homo sapiens, MDA-MB-435S, Table IIc. Put shortly:
as §1

A further test concerns MiaPaca-2. The note with it: Homo sapiens, MIA PaCa-2, Table IIb. Put shortly: as §1
A further test deals with PC3. Particulars: Homo sapiens, PC-3, Table IIb. An outline of the steps: as §1
For a further test, the system named is Panc-1. Particulars: Homo sapiens, Table IIb. An outline of the steps: as §1
In a further test the test system is U373. The note with it: Homo sapiens, U373 MG, Table IIc. An outline of the steps:
as §1

Another test deals with MCF10A. The note with it: Homo sapiens, MCF-10A, Table IIb. An outline of the steps:
as §1

pIC50: −log10 of the molar value. Some results are limits rather than exact numbers.

For the compound `COc1cc2c(Oc3ccc(NS(=O)(=O)c4cc(F)ccc4F)cc3F)ccnc2cc1OCCCN1CCCCC1` [Example 1, 2,5-Difluoro-N-{3-fluoro-4-[6-methoxy-7-(3-piperidin-1-yl-propoxy)-quinolin-4-yloxy]-phenyl}-benzenesulfonamide], the pIC50 in the test on 786-0 was 4.30 to 4.90; with A549, no less than 4.90; in the test with Aspc-1 it was no less than 4.90; in the test with DU145 it was no less than 4.90; in the test on H460, no less than 4.90; in the test with HT29 it was no less than 4.90. The pIC50 is no less than 4.90 with MDA-MB435s; no less than 4.90 in the test on MiaPaca-2; no less than 4.90 with PC3; 4.30 to 4.90 with Panc-1; no less than 4.90 in the test on U373.
Consider `COc1cc2c(Oc3ccc(NS(=O)(=O)c4cc(F)ccc4F)cc3F)ccnc2cc1OCCCN1CCN(C)CC1` [Example 12, 2,5-Difluoro-N-(3-fluoro-4-{6-methoxy-7-[3-(4-methyl-piperazin-1-yl)-propoxy]-quinolin-4-yloxy}-phenyl)-benzenesulfonamide], for which the negative logarithm of the IC50 (pIC50) in the test on 786-0, with A549, in the test with Aspc-1, with DU145, with H460 and in the test on HT29 was no less than 4.90 in each case. For the same compound, the pIC50 in the test on MDA-MB435s is no less than 4.90; in the test on MiaPaca-2 it was no less than 4.90; with PC3 it was no less than 4.90; with Panc-1, 4.30 to 4.90; in the test with U373, no less than 4.90.
In the case of `COc1cc2c(Oc3ccc(NS(=O)(=O)c4ccccc4C(F)(F)F)cc3F)ccnc2cc1OCCCN1CCN(C)CC1` [Example 24, N-(3-Fluoro-4-{6-methoxy-7-[3-(4-methyl-piperazin-1-yl)-propoxy]-quinolin-4-yloxy}-phenyl)-2-trifluoromethyl-benzenesulfonamide], the negative-log IC50 (pIC50) with 786-0, in the test on A549, in the test with Aspc-1, in the test on DU145, in the test with H460 and in the test on HT29 was no less than 4.90 in each case. Also, the negative-log IC50 (pIC50) with MCF10A was no less than 4.90; in the test on MDA-MB435s, no less than 4.90; in the test on MiaPaca-2, no less than 4.90; in the test on PC3, 4.30 to 4.90; in the test on Panc-1, 4.30 to 4.90; with U373, no less than 4.90.
With `COC(=O)c1sccc1S(=O)(=O)Nc1ccc(Oc2ccnc3cc(OCCCN4CCCC(C)C4)c(OC)cc23)c(F)c1` (stereo not drawn) [Example 66, 3-(3-Fluoro-4-{6-methoxy-7-[3-(3-methyl-piperidin-1-yl)-propoxy]-quinolin-4-yloxy}-phenylsulfamoyl)-thiophene-2-carboxylic acid methyl ester], the pIC50 in the test with 786-0, in the test on A549, in the test with Aspc-1, in the test on DU145, with H460 and with HT29 was no less than 4.90 each time. Besides, the negative-log IC50 (pIC50) with MDA-MB435s, in the test on MiaPaca-2, with PC3, in the test with Panc-1 and with U373 was no less than 4.90 throughout.
